The text below walks through data of patent US5268389A, “Thiocarboxylate ester compounds compositions containing the same” (priority 1990, dated 1993).

Where “and” joins values, the source holds several entries; their conditions need not be identical. Equal values may be shown once.

Test [1] has as its system HIV. Kind of test: Reduction of HIV cytopathic effect, MT2C (MT2 cells inoculated with cultured virus-infected MT2 cells). The test is classed as cell-based. On the procedure: (§1) The compounds of Examples were tested for anti-AIDS activity by subjecting them to standard National Cancer Institute ("NCI") in vitro screening procedures. In carrying out each test, two blanks were run. In the first blank, HIV and a culture of a standard human cell line were incubated together to measure the infectivity of the virus. The viability of the cells was measured after holding for six or seven days. In an "effective" test, most cells were infected before the holding period was complete.
(§2) In the second blank, the cell line culture and the compound being tested (but not virus) were incubated together to measure the toxicity of the drug to the cellline. The viability of the cells was measured as a function of concentration of the compound, after holding for seven days. […]
(§3) Finally, the protective effects of the test compounds were measured. Each cell culture and test compound were incubated with the virus and the viability of the cells was measured as a function of compound concentration after holding for six or seven days. […] At this point, cell viability increases steadily toward 100% unless the toxic effect of the compound (as measured in the second blank) takes effect. […] The therapeutic index TI50 is calculated as IC50/EC50.
(§4) Values of test compound concentrations required for between 20 and 50% reduction of the viral cytopathic effect can also be determined. […]

Test [2] has as its system HIV. Kind of test: Reduction of HIV cytopathic effect, MT2V (MT2 cells, free virus). It counts as cell-based. As to conditions: Human immunodeficiency virus 1, read-out: Activity of Anti-HIV Compounds (EC50), MT2V. As for the experimental part: as §1, §2, §3, §4
Background: Cytopathic effects are the visible damage that an infection or toxin causes in cultured cells.

For test [3], the system named is HIV. Kind of test: Reduction of HIV cytopathic effect, CEMC (CEM cells, virus previously cultured with host cells). The test is classed as cell-based. As to conditions: for EC50: Human immunodeficiency virus 1, CCRF-CEM, read-out: Activity of Anti-HIV Compounds (EC50), CEMC. As for the experimental part:
as §1
(§5) In the second blank, the cell line culture and the compound being tested (but not virus) were incubated together to measure the toxicity of the drug to the cellline. The viability of the cells was measured as a function of concentration of the compound, after holding for seven days. Typically, the cells survive at low compound concentrations, but at some higher concentration, toxicity of the compound is manifested and the cells die. The concentration of the test compound that results in 50% inhibition of cell growth is defined as the IC50.
Finally, the protective effects of the test compounds were measured. Each cell culture and test compound were incubated with the virus and the viability of the cells was measured as a function of compound concentration after holding for six or seven days. If the compound is active in protecting the cells against the virus, there is typically low cell viability until an effective concentration of the test compound is reached. At this point, cell viability increases steadily toward 100% unless the toxic effect of the compound (as measured in the second blank) takes effect. […] The therapeutic index TI50 is calculated as IC50/EC50.
as §4
5) Individual wells are analyzed spectrophotometrically to quantity formazan production, and in addition are viewed microscopically for detection of viable cells and confirmation of protective activity. […]

Test [4] deals with HIV. Kind of test: microbe, parasite or virus in culture. The test is classed as cell-based. As to conditions: CEM cells, free HIV, read-out: Activity of Anti-HIV Compounds (EC50), CEMV. On the procedure:
as §1, §5
(§6) Finally, the protective effects of the test compounds were measured. Each cell culture and test compound were incubated with the virus and the viability of the cells was measured as a function of compound concentration after holding for six or seven days. If the compound is active in protecting the cells against the virus, there is typically low cell viability until an effective concentration of the test compound is reached. At this point, cell viability increases steadily toward 100% unless the toxic effect of the compound (as measured in the second blank) takes effect. The concentration of the test compound that results in 50% "control," i.e., a 50% reduction of the viral cytopathic effect, is defined as the EC 50. The therapeutic index TI50 is calculated as IC50/EC50.
(§7) Values of test compound concentrations required for between 20 and 50% reduction of the viral cytopathic effect can also be determined. Such compounds are classified as moderately active.
(§8) The compounds were tested to determine their reduction of HIV cytopathic effect on the human cell lines CEM and MT2. Tests were done by innoculating these cell lines either with free HIV (V) or with a virus Previously cultured with host cells (C). Thus, in Table III the designation CEMV means CEM line cells innoculated with free virus and MT2C means MT2 cells innoculated with cultured viral infected MT2 cells. In some cases the compound was also tested on a cell line together with a sub-effective amount of the known HIV viricide AZT. This is done to test possible synergistic effects. Such a test on the CEM line is denoted CEMZ.
(§9) 1) T4 lymphocytes (CEM cell line) are exposed to HIV at a virus to cell ratio of approximately 0.05 and plated along with non-infected control cells in 96-well microtiter plates.
(§10) 2) Each candidate agent is dissolved in dimethyl sulfoxide (unless otherwise indicated), then diluted 1:200 in cell culture medium. Further dilutions (five-fold) are prepared before adding to an equal volume of medium containing either infected or noninfected cells.
(§11) 3) Cultures are incubated at 37° C. in a 5% carbon dioxide atmosphere for seven days (if six days the CEMV test is identified as CEM-6).
(§12) 4) The tetrazolium salt, XTT, is added to all wells, and cultures are incubated to allow formazan color development by viable cells.
(§13) 5) Individual wells are analyzed spectrophotometrically to quantity formazan production, and in addition are viewed microscopically for detection of viable cells and confirmation of protective activity.
(§14) 6) Drug-treated virus-infected cells are compared with drug-treated non-infected cells and with other appropriate controls (untreated infected and untreated non-infected cells, drug-containing wells without cells, etc.) on the same plate.
7) A determination of activity is made. […]

In test [5] the test system is HIV. The test can be described thus: Reduction of HIV cytopathic effect, CEMZ (CEM line with sub-effective amount of AZT). It counts as cell-based. As to conditions: CEM cells, read-out: Activity of Anti-HIV Compounds (EC50), CEMZ. On the procedure: as §1, §5, §6, §7, §8
Test [6] relates to succinate dehydrogenase complex. As to conditions: mitochondria from Ustilago maydis, White et al. (1978); cited from earlier work.
Test [7] has as its system HIV. Kind of test: Reduction of HIV cytopathic effect, CEM-6 (CEMV test, six days). It counts as cell-based. As to conditions: CEM cells; for Activity class of Anti-HIV Compounds, CEM-6: inhibition of viral cytopathic effect, 8640 min; for EC50: free HIV, read-out: Activity of Anti-HIV Compounds (EC50), CEM-6. As for the experimental part:
as §1, §6, §7, §8, §9, §10, §11, §12, §13, §14

Test [8] deals with HIV. Kind of test: Reduction of HIV cytopathic effect, CEM-IW protocol. The test is classed as cell-based. As to conditions: inhibition of viral cytopathic effect, asterisk: CEMIW protocol. On the procedure: as §1, §6, §7, §8
The aforementioned identifiers are used when a batch was prepared and samples inserted into the wells. In procedures calling for the addition of the drug (or no drug) and the CEM uninfected cells to each well, followed by the subsequent addition of the HIV virus, the protocol is designated as CEM-IW.
as §12, §13, §14
Asterisks indicate the CEMIW protocol.

The mark [9] stands for this setting: Human immunodeficiency virus 1, CCRF-CEM.

Turning to `CC1=C(C(=O)Nc2cc(C(=O)OC(C)C)c(Cl)cc2F)SCCO1` [Compound 2, 1-Methylethyl 2-chloro-5-[[(5,6-dihydro-2-methyl-1,4-oxathiin-3-yl)carbonyl]amino]-4-fluorobenzoate], the EC50 in the test on HIV [1] (Human immunodeficiency virus 1, MT2, MT2 cells inoculated with cultured viral infected MT2 cells, read-out: Activity of Anti-HIV Compounds (EC50), MT2C) stood at 3.2 µM; in the test with HIV [2], 14.4 µM; in the test on HIV [3] it was 3.5 µM; in the test with HIV [4], 1.3 µM; with HIV [5] (setting [9]), 1.8 µM. `CCOC(=O)c1cccc(NC(=O)C2=C(C)OCCS2)c1` [Compound 8, Ethyl 3-[[(5,6-dihydro-2-methyl-1,4-oxathiin-3-yl)carbonyl]amino]benzoate]: the “Activity class of Anti-HIV Compounds, CEMC” value with HIV [3] (inhibition of viral cytopathic effect) is “MA (moderate activity (MA), that is, inhibition between approximately 20 and 50%)”. Further, the “inhibition of succinate dehydrogenase complex” value in test [6] is on record as “inhibitors of succinate dehydrogenase complex”. Take `Cc1oc(C)c(C(=O)Nc2ccc(Cl)c(C(=O)OC(C)C)c2)c1C` [Compound 16, 1-Methylethyl 2-chloro-5-[[(2,4,5-trimethyl-3-furanyl)carbonyl]amino]benzoate]: the EC50 in the test with HIV [5] (setting [9]) turned out to be 0.9 µM. With `Cc1ccoc1C(=O)Nc1ccc(Cl)c(C(=O)OC(C)C)c1` [Compound 17, 1-Methylethyl 2-chloro-5-[[(3-methyl-2-furanyl)carbonyl]amino]benzoate], the values for the EC50 in the test with HIV [4] (setting [9]) and in the test with HIV [5] (setting [9]) were 3.3 µM and 7.9 µM, respectively. Consider `Cc1ccccc1C(=O)Nc1ccc(Cl)c(C(=O)OC(C)C)c1` [Compound 23, 1-Methylethyl 2-chloro-5-[(2-methylbenzoyl)amino]benzoate], for which the results for the 50% effective concentration (EC50) in the test with HIV [4], with HIV [4] (setting [9]) and in the test on HIV [5] (setting [9]) were 5.6 µM, 5.8 µM and 1.1 µM, respectively.

For the compound `CCCOC(=O)c1cc(NC(=O)c2ccccc2C)ccc1Cl` [Compound 24, Propyl 2-chloro-5-[(2-methylbenzoyl)amino]benzoate], the EC50 in the test with HIV [5] (setting [9]) was found to be 12 µM. `CC(C)OC(=O)c1cc(NC(=O)c2ccccc2F)ccc1Cl` [Compound 25, 1-Methylethyl 2-chloro-5-[(2-fluorobenzoyl)amino]benzoate]: in the test on HIV [5], the EC50 was 34.4 µM and 39.4 µM. As for `CC1=C(C(=O)Nc2ccc(Cl)cc2)SCCS1` [Compound 26, N-(4-Chlorophenyl)-5,6-dihydro-3-methyl-1,4-dithiin-2-carboxamide], in the test on HIV [1] (inhibition of viral cytopathic effect, MT2 cells, cultured virus), the “Activity class of Anti-HIV Compounds, MT2C” value was “MA (moderate activity (MA), that is, inhibition between approximately 20 and 50%)”. In addition, in the test on HIV [3], the EC50 amounted to 35.5 µM. For `COCCOCCOC(=O)c1cc(NC(=O)C2=C(C)OCCS2)ccc1Cl` [Compound 78, 2-(2-Methoxyethoxy)ethyl 2-chloro-5-[[(5,6-dihydro-2-methyl-1,4-oxathiin-3-yl)carbonyl]amino]benzoate], the “Activity class of Anti-HIV Compounds, CEM-6” value (shortened to “Activity class … CEM-6”) with HIV [7] is “MA (moderate activity (MA), that is, inhibition between approximately 20 and 50%)”. Also, the “Activity class of Anti-HIV Compounds, CEM-IW” value in the test with HIV [8] was “MA (moderate activity (MA), that is, inhibition between approximately 20 and 50%)”. Turning to `Cc1nc(C)c(C(=O)Nc2ccc(Cl)c(C(=O)OC(C)C)c2)s1` [Compound 94], in the test on HIV [7], the “Activity class … CEM-6” value is “MA (moderate activity (MA), that is, inhibition between approximately 20 and 50%)”. Further, in the test on HIV [8], the “Activity class of Anti-HIV Compounds, CEM-IW” value was “MA (moderate activity (MA), that is, inhibition between approximately 20 and 50%)”. With `CC(C)OC(=O)c1cc(NC(=O)c2cc3ccccc3[nH]2)ccc1Cl` [Compound 104], the “Activity class … CEM-6” value in the test with HIV [7] is “MA (moderate activity (MA), that is, inhibition between approximately 20 and 50%)”. Take `Cc1nc(-c2ccccc2)c(C(=O)Nc2ccc(Cl)c(C(=O)OC(C)C)c2)o1` [Compound 105]: the “Activity class … CEM-6” value in the test with HIV [7] is “MA (moderate activity (MA), that is, inhibition between approximately 20 and 50%)”. With `Cc1ccsc1C(=O)Nc1ccc(Cl)c(C(=O)OC(C)C)c1` [Compound 106], the EC50 in the test with HIV [7] was 2.2 µM.

For `CC(C)OC(=O)c1cc(NC(=O)C2=CCCCC2)ccc1Cl` [Compound 107], in the test on HIV [7], the “Activity class … CEM-6” value is “MA (moderate activity (MA), that is, inhibition between approximately 20 and 50%)”. On to `Cc1cc(C)c(C(=O)Nc2ccc(Cl)c(C(=O)OC(C)C)c2)s1` [Compound 108], for which the “Activity class … CEM-6” value in the test with HIV [7] is “MA (moderate activity (MA), that is, inhibition between approximately 20 and 50%)”. With `CC(C)OC(=O)c1cc(NC(=O)c2ccsc2)ccc1Cl` [Compound 109], in the test with HIV [7], the “Activity class … CEM-6” value is “MA (moderate activity (MA), that is, inhibition between approximately 20 and 50%)”.

With `COC(=O)c1cccc(NC(=O)C2=C(C)OCCS2)c1` [methyl 3-[[(5,6-dihydro-2-methyl-1,4-oxathiin-3-yl)carbonyl]amino]benzoate, reference compound], the “inhibition of succinate dehydrogenase complex” value in test [6] is reported as “inhibitors of succinate dehydrogenase complex”. As to “Ethyl 5-[(2-aminobenzoyl)amino]-2-chlorobenzoate [Compound 88]”, in the test on HIV [7], the EC50 was 5.7 µM and 3.1 µM.

One may read the EC50 as the concentration needed to bring the measured effect to its halfway point.
